Measured values taken from patent US20160157484A1, “NATURAL ANTIMICROBIAL COMPOSITIONS” (Lincoln Manufacturing Inc., priority 2011, published 2016).

Assay: Solubility and stability of 20% and 25% lauric acid in solvents and solvent mixtures

Glycereth 2-Cocoate
Solubility of 20% Lauric Acid (20% lauric acid in the named solvent): Not Soluble
Solubility of 25% Lauric Acid (25% lauric acid in the named solvent): Not Soluble
